Drawing on article PMC8865919, “Penicillin Binding Proteins and β-Lactamases of Mycobacterium tuberculosis: Reexamination of the Historical Paradigm” (mSphere, 2022), this text covers IC50 for eight compounds.

Holding throughout (experiment): BOCILLIN FL fluorescence inhibition, SDS-PAGE
Format in all cases: binding
What all share (conditions): read-out: FIC50

One test concerns the target PbpB (Rv2163c) (Mycobacterium tuberculosis, UniProt L0T911). The source says:
BOCILLIN FL fluorescence inhibition, SDS-PAGE on PbpB (Rv2163c)

The target of a further test is DacB1 (Rv3330) (Mycobacterium tuberculosis, UniProt O53380). The source says: BOCILLIN FL fluorescence inhibition, SDS-PAGE on DacB1 (Rv3330)
DacB1 (Rv3330), sequence (O53380 33-374): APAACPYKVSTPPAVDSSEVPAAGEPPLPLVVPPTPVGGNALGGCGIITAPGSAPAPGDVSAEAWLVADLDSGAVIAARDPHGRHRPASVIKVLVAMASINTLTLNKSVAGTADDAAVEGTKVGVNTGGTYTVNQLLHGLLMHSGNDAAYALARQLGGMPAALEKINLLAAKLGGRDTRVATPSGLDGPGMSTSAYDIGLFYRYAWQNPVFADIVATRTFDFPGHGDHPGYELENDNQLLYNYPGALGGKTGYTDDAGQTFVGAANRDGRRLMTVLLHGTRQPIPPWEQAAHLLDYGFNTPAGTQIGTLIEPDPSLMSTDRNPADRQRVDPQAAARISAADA
The target of the next test is Rv1730c (Mycobacterium tuberculosis, UniProt P71988). The source says:
BOCILLIN FL fluorescence inhibition, SDS-PAGE on Rv1730c

The target of the next test is DacB (Rv3627c) (Mycobacterium tuberculosis, UniProt O06380). The source says:
BOCILLIN FL fluorescence inhibition, SDS-PAGE on DacB (Rv3627c)

For another test, the target named is PbpA (Rv0016c) (Mycobacterium tuberculosis, UniProt P9WKD1). The source says:
BOCILLIN FL fluorescence inhibition, SDS-PAGE on PbpA (Rv0016c)

In the next test the target is PonA1 (Rv0050) (Mycobacterium tuberculosis, UniProt P71707). An excerpt: BOCILLIN FL fluorescence inhibition, SDS-PAGE on PonA1 (Rv0050)
PonA1 (Rv0050), sequence (P71707 160-820): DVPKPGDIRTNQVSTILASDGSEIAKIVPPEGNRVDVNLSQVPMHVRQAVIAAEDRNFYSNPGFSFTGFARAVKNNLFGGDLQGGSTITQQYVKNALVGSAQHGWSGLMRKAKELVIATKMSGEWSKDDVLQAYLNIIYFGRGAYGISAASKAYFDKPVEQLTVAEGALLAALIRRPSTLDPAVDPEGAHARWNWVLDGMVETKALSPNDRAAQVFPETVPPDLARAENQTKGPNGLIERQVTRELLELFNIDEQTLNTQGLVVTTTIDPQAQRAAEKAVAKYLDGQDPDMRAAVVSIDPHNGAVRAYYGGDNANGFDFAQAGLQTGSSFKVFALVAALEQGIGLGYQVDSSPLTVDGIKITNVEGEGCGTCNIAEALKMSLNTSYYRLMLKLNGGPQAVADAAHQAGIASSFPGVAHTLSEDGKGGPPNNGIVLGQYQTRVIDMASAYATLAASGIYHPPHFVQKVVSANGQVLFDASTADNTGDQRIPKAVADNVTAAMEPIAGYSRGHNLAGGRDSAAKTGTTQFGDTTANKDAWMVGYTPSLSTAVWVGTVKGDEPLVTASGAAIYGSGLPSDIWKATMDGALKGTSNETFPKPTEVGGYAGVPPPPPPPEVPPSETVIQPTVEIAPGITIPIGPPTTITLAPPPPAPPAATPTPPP
The next test addresses DacB2 (Rv2911) (Mycobacterium tuberculosis, UniProt I6Y204). The source says: BOCILLIN FL fluorescence inhibition, SDS-PAGE on DacB2 (Rv2911)
The target of a further test is PonA2 (Rv3682) (Mycobacterium tuberculosis, UniProt I6YGX2). The source says:
BOCILLIN FL fluorescence inhibition, SDS-PAGE on PonA2 (Rv3682)

Rv1730c, sequence (P71988 entry or part of it): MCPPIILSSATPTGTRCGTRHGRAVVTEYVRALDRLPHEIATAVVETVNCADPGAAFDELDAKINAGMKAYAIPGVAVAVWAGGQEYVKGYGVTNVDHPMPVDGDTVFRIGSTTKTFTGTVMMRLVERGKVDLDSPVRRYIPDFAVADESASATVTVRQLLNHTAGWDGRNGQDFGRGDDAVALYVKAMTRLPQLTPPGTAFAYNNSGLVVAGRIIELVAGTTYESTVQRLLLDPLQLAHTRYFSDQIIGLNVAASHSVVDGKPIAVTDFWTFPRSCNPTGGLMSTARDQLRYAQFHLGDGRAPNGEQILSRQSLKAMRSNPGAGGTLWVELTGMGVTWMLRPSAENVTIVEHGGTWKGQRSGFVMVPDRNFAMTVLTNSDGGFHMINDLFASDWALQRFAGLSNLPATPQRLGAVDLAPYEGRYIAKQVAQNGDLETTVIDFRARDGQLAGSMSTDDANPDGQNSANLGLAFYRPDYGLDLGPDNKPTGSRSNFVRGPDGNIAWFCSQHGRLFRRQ
PbpB (Rv2163c), sequence (L0T911 112-679): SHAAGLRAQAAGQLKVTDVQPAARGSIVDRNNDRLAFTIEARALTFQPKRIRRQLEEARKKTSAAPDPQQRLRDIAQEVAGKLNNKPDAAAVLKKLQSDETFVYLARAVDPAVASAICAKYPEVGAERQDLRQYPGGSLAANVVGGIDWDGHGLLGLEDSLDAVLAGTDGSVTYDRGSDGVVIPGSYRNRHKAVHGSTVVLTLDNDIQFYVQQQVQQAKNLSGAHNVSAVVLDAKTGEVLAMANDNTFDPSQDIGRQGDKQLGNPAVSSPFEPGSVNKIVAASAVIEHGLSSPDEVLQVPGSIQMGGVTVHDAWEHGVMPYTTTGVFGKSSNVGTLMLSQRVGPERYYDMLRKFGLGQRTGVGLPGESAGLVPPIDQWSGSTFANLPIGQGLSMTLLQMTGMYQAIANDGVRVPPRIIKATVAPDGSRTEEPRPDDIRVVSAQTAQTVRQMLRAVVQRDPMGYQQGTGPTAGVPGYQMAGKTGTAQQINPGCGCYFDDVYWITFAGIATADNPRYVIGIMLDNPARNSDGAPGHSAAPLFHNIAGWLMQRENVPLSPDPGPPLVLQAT
DacB2 (Rv2911), sequence (I6Y204 23-291): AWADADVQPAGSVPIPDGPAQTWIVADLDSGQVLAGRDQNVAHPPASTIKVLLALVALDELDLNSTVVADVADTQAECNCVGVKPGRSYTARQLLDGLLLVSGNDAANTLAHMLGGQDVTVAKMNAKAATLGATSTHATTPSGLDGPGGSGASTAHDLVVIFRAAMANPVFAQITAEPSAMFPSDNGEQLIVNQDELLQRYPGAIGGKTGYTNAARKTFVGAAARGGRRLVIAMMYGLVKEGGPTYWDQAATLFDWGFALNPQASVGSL
PbpA (Rv0016c), sequence (P9WKD1 29-491): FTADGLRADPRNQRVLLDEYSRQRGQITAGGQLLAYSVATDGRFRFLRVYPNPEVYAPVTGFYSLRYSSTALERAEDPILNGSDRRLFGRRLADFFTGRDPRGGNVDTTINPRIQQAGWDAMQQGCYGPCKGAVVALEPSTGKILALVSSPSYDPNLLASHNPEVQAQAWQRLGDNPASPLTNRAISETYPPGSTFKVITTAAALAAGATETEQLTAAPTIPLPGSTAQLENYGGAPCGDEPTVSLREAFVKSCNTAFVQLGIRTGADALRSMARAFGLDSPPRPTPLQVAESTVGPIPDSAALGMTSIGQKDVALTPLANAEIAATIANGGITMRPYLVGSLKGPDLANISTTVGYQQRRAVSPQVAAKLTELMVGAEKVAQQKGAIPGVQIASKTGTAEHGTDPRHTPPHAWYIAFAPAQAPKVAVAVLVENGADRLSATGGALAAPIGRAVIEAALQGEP
DacB (Rv3627c), sequence (O06380 35-461): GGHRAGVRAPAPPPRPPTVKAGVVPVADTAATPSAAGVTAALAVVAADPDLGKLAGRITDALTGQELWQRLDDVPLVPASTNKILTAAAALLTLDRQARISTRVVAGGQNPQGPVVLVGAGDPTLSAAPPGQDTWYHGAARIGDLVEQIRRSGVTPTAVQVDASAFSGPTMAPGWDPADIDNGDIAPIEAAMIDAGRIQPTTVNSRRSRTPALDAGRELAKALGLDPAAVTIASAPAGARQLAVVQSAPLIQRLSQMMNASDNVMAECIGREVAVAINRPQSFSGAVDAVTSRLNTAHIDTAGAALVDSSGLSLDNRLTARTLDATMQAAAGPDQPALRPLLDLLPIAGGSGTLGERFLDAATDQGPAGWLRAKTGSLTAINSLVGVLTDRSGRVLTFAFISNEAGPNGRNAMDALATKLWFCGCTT
PonA2 (Rv3682), sequence (I6YGX2 entry or part of it): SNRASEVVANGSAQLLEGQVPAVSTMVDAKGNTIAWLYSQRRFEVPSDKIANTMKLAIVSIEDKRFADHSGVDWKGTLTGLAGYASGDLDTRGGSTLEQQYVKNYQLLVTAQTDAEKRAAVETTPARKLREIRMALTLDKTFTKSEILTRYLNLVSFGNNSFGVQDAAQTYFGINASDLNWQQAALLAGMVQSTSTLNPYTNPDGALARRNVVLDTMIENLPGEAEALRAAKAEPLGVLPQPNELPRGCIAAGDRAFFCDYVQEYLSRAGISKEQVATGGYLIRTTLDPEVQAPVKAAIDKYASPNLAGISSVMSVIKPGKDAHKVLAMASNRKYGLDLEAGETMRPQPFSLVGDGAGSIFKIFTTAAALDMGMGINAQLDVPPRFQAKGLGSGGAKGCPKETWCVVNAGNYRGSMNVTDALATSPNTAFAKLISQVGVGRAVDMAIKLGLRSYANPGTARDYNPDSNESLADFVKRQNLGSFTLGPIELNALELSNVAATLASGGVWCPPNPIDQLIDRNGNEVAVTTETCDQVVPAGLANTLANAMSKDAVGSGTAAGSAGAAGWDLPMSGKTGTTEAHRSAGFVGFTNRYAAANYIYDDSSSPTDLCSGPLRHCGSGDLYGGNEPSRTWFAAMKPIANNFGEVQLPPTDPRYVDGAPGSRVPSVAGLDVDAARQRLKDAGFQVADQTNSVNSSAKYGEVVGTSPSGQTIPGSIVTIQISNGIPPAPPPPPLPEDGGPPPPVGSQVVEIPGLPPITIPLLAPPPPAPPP

As for `CC1(C)S[C@@H]2[C@H](NC(=O)[C@H](N)c3ccccc3)C(=O)N2[C@H]1C(=O)O` [Ampicillin], at PbpB (Rv2163c), the IC50 came to 1.5 ± 0.4 µM.

`C[C@@H](O)[C@H]1C(=O)N2C(C(=O)[O-])=C(SC3Cn4cnc[n+]4C3)[C@H](C)[C@H]12` (some centres unmarked) [Biapenem]: the IC50 worked out at 18.1 ± 3 µM on DacB1 (Rv3330), 569 ± 72.1 µM at Rv1730c and 3.5 ± 0.2 µM at DacB (Rv3627c).

On to `C=CC1=C(C(=O)O)N2C(=O)[C@@H](NC(=O)/C(=N\O)c3csc(N)n3)[C@H]2SC1` [Cefdinir], for which the IC50 on PbpA (Rv0016c) turned out to be 13.8 ± 6.9 µM.

In the case of `CO[C@@]1(NC(=O)Cc2cccs2)C(=O)N2C(C(=O)O)=C(COC(N)=O)CS[C@@H]21` [Cefoxitin], the IC50 amounted to 25.1 ± 2.5 µM on PonA1 (Rv0050), 15.6 ± 1.2 µM on DacB1 (Rv3330) and 8.1 ± 2.4 µM at DacB2 (Rv2911).

Turning to `C[C@@H](O)[C@H]1C(=O)N2C(C(=O)O)=C([C@H]3CCCO3)S[C@H]12` [Faropenem], the IC50 is 27.9 ± 3.5 µM at PonA1 (Rv0050) and 89.8 ± 12.3 µM on Rv1730c.

As for `C[C@@H](O)[C@H]1C(=O)N2C(C(=O)O)=C(SCCN=CN)C[C@H]12` [Imipenem], the values for the IC50 at DacB1 (Rv3330), on PonA2 (Rv3682) and on DacB2 (Rv2911) were 4.5 ± 1.4 µM, 3 ± 0.6 µM and 11.1 ± 3.2 µM, respectively.

With `C[C@@H](O)[C@H]1C(=O)N2C(C(=O)O)=C(S[C@@H]3CN[C@H](C(=O)N(C)C)C3)[C@H](C)[C@H]12` [Meropenem], the IC50 was 838 ± 103 µM on Rv1730c, 1.5 ± 0.2 µM at DacB (Rv3627c) and 4.1 ± 0.2 µM on PbpB (Rv2163c).

Turning to `COc1cccc(OC)c1C(=O)N[C@@H]1C(=O)N2[C@@H]1SC(C)(C)[C@@H]2C(=O)O` [Methicillin], the IC50 on PbpA (Rv0016c) is 11.6 ± 2.6 µM.
